Measured values reported in US8957022B2, “Multimeric tie 2 agonists and uses thereof in stimulating angiogenesis” (Sunnybrook Health Sciences Centre, priority 2006, dated 2015).

Assays:
[1] = test system: Cos 1 fibroblast cells and C166 EC's (phenotypically null for Tie 2); assay: MAPK and AKT phosphorylation in Ad-EGFP infected cells null for Tie 2; type: cell-based; settings: EGFP infected Cos 1 and C166 cells
Description: To more formally address the specificity of clustered Vasculotide for the Tie 2 receptor, reconstitution experiments were performed in Cos 1 fibroblast cells and C166 EC's, both of which are phenotypically null for Tie 2. Cos 1 and C166 cells (ATCC) were maintained on 10-cm-diameter plates (Nunc) in Dulbecco's modified Eagle's medium (DMEM) supplemented with 10% (FBS), 1× penicillin, 1× streptomycin, and 200 mM L-glutamine (all Gibco BRL) in a 5% CO2 incubator at 37° C. Cos1 or C166 cells were infected (MOI 30) overnight with adenoviruses encoding one of either enhanced green fluorescent protein (EGFP) or Tie 2. Infection efficiency was confirmed by epifluorescence (EGFP), or by immunoblot (Tie 2).
Cells infected with recombinant adenovirus encoding EGFP or Tie 2 were either left unstimulated or stimulated with Vasculotide, clustered Vasculotide or avidin for 16 hours, after which MTS reagent was applied to all samples for 4 hours. Absorbance at 492 was measured using a multiwell plate reader (Power Wave X340, Biotek Instruments Inc). To broadly examine the potential that clustered Vasculotide was activating Tie 2-independent downstream signalling pathways, the activation of MAPK and AKT in the EGFP infected cells was examined. […] This fact precluded us from stimulating these cells any further with Vasculotide or clustered Vasculotide.

CD1 mice [2] = assay: Matrigel plug angiogenesis assay; type: in vivo, mouse; settings: for Vessel growth in plugs (confocal analysis): FITC lectin
Description: To further examine the in vivo angiogenic potential of Vasculotide, a Matrigel assay was performed. More specifically, growth factor reduced Matrigel (BD Biosciences) was impregnated with either clustered Vasculotide or one of several different control factors. These Matrigel samples were injected subcutaneously into the flank region of 3 month old CD1 mice. 14 days post implantation and immediately prior to sacrifice, FITC lectin (100 μg) was injected IV and allowed to circulate for 10 minutes, to facilitate vessel identification and quantification. Plugs were surgically resected and fixed in 4% paraformaldehyde (PFA) for 16 h. Images of vascular topology were taken using a Zeiss dissecting microscope at 4× magnification. Upon fixing, all plugs were whole mount stained with anti-Sma1-Cy3. Plugs were analyzed on a Zeiss Axiovert 100 M confocal microscope (Carl Zeiss) for three dimensional image reconstruction and photos were processed using LSM Image Browser and Adobe Photoshop 7.0. Morphometric quantification of vessel characteristics was performed by skeletonizing confocal image projections with Image Processing Tool Kit 5.0 (IPTK 5.0). Student's t test was used to test the statistical significance with a 95% confidence interval. All experiments were performed with three replicates each, with at least 5 random image stacks.
To more fully address and assign quantitative vessel parameters to the different treatment groups, the plugs were fixed and interrogated with laser confocal microscopy analysis combined with post processing image analysis (Image Processing Tool Kit 5.0, Reindeer Graphics, N.C.). Vessel parameters, including length, number and branch points (nodes) were quantified on at least six representative fields. Statistical analysis was performed by way of unpaired Student's t test. Bar graphs of the number of vessels, vessel length and number of nodes, for each treatment group, are shown in FIGS. 3A, 3B and 3C, respectively. It is noted that poor perfusion of FITC-lecithin into mice harboring 20 nM clustered Vasculotide plus VEGF plugs prevented statistical analysis, therefore bars are the mean of two separate fields. All other bars shown represent mean+/−SD.
Ang 1 has been reported to potentiate the recruitment of myogenic support cells (Suri, C. et al. (1996) Cell 87:1171-1180) and inhibit VEGF induced vascular permeability through mechanisms that are not well understood (Thurston, G. et al. (2000) Nat. Med. 6:460-463). To determine if Vasculotide, like Ang 1, was capable of initiating pericyte recruitment, whole mount immunofluorescence was performed against smooth muscle actin 1 (Sma1). […] Sma 1 staining was tightly associated with the exterior of the vessels and was enriched on larger vessels.

CD1 mice [3] = type: in vivo; settings: 50 μg intravenously, peripheral blood 24 hours post injection
Description: In this example, the effect of systemically administered Vasculotide on circulating endothelial cells was examined. Three month old CD1 mice were injected intravenously with either PBS (vehicle) or 50 μg of clustered Vasculotide. Twenty four hours post injection, peripheral blood was collected on heparin via cardiac puncture and nonhematopoietic circulating endothelial cells (CECs) were sorted using a four channel FACS approach. CECs were defined as CD13^+/VEGFR-2^+/CD45^−, Viable (propidium iodide). Cell numbers reported are number of viable cells/μl of peripheral blood. Total white blood cell count was also determined using a hemocytometer.

HUVEC = assay: Serum withdrawal-induced cell death, Cell Death ELISA; type: cell-based, human; settings: F12 plus 0.1% FBS, 16 hours; clustered Vasculotide at 500 pM (p=0.002) vs non-treated cells
Description: Based on the fact that clustered Vasculotide strongly activates the anti apoptotic protein AKT (see Example 3), the ability of Vasculotide to protect ECs from serum withdrawal-induced death was examined. To do so, HUVEC were maintained in F12 media plus 0.1% FBS for 16 hours in the presence of various concentrations of unclustered or clustered Vasculotide, followed by analysis of cell apoptosis via cell death ELISA. Analysis of apoptosis was performed using Cell Death ELISA Plus (Roche) according to manufacturers' specifications. The results are shown in FIG. 2A, in which values were normalized to basal levels of cell death for HUVECs maintained in full 10% FBS, growth factor supplemented F12 media. The results shown represent the mean of three replicates plus or minus 1 SD. Student's T-test was used for statistical analysis with P value indicated.

[4] = test system: focal adhesion kinase (FAK); assay: FAK activation in HUVEC (pY397 FAK immunoblot); type: cell-based, human; settings: time course
Description: HUVEC were stimulated with one of either Ang 1 (R&D Systems), Vasculotide, avidin or clustered Vasculotide (preclustered with a 4:1 molar ratio of peptide:avidin in PBS for 2 hours at 4° C.) at various doses. Stimulations with Vasculotide were performed in full serum containing growth media for 15 minutes unless otherwise indicated. Cell lysate preparations and immunoblot analysis were performed by standard methods. Antibodies used for immunoblotting (in this and/or subsequent Examples) were monoclonal anti Tie 2 (Pharminogen), polyclonal anti pY992 Tie 2, (Cell Signaling Technology), polyclonal anti MAPK (Cell Signaling Technology), monoclonal anti phospho MAPK (Cell Signaling Technology), polyclonal anti AKT (Cell Signaling Technology), polyclonal anti pS473 AKT (Cell Signaling Technology), monoclonal anti pS1177 eNOS (BD Biosciences), polyclonal anti pY397 FAK (Biosource), polyclonal anti FAK (Santa Cruz), polyclonal anti smooth muscle actin-Cy3 direct conjugate (Dako), polyclonal anti PECAM (Pharminogen) and polyclonal anti smooth muscle actin (Sigma).
To examine Tie 2 activation kinetics, HUVEC were stimulated with native Ang 1 or clustered Vasculotide for various times. Stimulation was performed in 10% FBS. […]

Substance	Phosphorylation of MAPK or AKT above non-stimulated samples [1]	Vessel growth in plugs (confocal analysis) (CD1 mice [2]; 14 days post implantation)	Number of circulating endothelial cells (CD1 mice [3])	Apoptosis / survival after serum withdrawal (HUVEC)	Nature of vessels (arborization, tortuosity) (CD1 mice [2]; 14 days post implantation)	Angiogenic response in the membranous capsule surrounding the plugs (CD1 mice [2]; 14 days post implantation, subcutaneous)	Smooth muscle actin 1 (Sma1) staining, pericyte recruitment (CD1 mice [2]; whole mount immunofluorescence)	Activation of FAK [4]
Vasculotide: biotinylated T7 peptide-PEG: Cys-His-His-His-Arg-His-Ser-Phe (SEQ ID NO: 2) conjugated to EZ-link-PEO-maleimide-biotin	Neither Vasculotide nor clustered Vasculotide significantly induced phosphorylation of MAPK or AKT	no significant vessel growth	decrease in the number of circulating endothelial cells	no effect on survival				
clustered Vasculotide: Vasculotide clustered with avidin in a 4:1 ratio, an obligate tetrameric compound	Neither Vasculotide nor clustered Vasculotide significantly induced phosphorylation of MAPK or AKT	robust induction of angiogenesis		statistically significant decrease in apoptosis	clear, large, well arborized vessels	distinct and robust angiogenic response	significant increase in overall Sma 1 staining	no significant effect
